Our source for the IC50 values is patent US8895733B2 (Novartis AG, priority 2010, dated 2014).

Where a name gives a salt, the structure may show the parent alone.

T1 sequence (Q15858 whole entry): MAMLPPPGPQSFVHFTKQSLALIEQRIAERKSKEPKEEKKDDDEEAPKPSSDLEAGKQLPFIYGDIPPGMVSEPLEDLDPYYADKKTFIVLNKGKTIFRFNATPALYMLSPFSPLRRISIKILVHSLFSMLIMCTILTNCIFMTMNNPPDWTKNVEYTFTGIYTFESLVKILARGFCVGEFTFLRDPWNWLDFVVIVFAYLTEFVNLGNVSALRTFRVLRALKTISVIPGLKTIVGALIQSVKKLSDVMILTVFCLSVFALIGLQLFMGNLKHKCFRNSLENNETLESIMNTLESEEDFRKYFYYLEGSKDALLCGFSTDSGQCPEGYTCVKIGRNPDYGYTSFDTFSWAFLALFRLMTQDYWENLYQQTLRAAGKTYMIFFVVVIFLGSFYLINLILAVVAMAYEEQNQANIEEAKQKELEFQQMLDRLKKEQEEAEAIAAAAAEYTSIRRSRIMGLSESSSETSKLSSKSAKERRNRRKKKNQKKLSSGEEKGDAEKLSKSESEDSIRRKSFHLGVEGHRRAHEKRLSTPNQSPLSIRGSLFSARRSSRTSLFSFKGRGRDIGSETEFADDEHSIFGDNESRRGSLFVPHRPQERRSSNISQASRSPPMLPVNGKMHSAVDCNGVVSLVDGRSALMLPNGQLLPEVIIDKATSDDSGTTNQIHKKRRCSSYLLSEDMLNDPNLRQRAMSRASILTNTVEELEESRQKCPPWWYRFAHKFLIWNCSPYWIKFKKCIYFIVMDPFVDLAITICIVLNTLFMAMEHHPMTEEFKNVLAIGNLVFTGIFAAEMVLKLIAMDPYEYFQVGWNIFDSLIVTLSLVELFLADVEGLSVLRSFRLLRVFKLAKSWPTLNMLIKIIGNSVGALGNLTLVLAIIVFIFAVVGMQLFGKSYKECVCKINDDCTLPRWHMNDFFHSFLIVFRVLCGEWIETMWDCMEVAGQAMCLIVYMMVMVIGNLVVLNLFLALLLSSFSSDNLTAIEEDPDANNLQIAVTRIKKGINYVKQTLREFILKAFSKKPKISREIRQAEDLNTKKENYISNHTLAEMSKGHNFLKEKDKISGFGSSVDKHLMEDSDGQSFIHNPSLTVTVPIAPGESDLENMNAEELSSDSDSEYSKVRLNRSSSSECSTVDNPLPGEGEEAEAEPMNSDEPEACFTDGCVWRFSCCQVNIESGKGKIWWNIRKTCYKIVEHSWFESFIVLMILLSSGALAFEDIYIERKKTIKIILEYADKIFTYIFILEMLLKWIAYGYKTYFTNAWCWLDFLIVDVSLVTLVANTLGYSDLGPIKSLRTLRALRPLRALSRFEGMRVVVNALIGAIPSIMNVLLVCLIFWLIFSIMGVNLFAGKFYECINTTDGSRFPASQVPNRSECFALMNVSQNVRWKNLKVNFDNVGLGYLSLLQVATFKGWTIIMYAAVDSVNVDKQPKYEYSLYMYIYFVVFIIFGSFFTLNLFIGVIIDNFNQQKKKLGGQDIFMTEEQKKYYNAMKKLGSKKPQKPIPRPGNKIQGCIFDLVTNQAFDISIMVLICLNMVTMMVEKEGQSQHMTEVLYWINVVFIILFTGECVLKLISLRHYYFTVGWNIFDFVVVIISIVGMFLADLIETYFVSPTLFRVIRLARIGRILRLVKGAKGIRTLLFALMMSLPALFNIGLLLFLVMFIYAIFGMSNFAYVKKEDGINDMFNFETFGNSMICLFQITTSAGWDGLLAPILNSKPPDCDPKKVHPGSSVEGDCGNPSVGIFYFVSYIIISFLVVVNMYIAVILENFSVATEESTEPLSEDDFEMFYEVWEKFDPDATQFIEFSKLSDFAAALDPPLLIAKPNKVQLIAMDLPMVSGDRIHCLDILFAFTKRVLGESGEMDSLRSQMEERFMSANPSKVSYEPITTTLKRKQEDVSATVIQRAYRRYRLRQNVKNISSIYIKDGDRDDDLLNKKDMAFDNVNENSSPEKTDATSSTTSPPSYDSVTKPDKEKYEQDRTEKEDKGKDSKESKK

One assay has as its target T1, Nav 1.7 (Homo sapiens, UniProt Q15858).
T1 construct: expressed in transfected cells
As to the kind of experiment: Whole-cell voltage clamp electrophysiology, automated patch clamp (marker c in Table of Examples). It is filed as cell-based. To be noted: marker c = Automated patch clamp data; read-out: Nav 1.7 activity. A digest of the protocol:
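Human NaV1.7 currents were recorded by whole-cell automated patch clamp, on IonWorks Quattro or another automated platform, typically in perforated-patch configuration. The stimulus protocol was designed to probe block mainly of the inactivated state, with a typical sweep stepping from about −65 mV holding to −10 mV, then −100 mV.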
On the technique in general: Patch clamp records ionic current or voltage across a cell membrane.
Consider `CN(c1ccccc1)c1nc(N)nc(-c2noc(-c3ncccc3C(=O)OC3CCCC3)n2)n1` [Example 379, cyclopentyl 2-(3-{4-amino-6-[methyl(phenyl)amino]-1,3,5-triazin-2-yl}-1,2,4-oxadiazol-5-yl)pyridine-3-carboxylate], for which the IC50 amounted to 0.386 µM.

Consider `Nc1nc(Nc2ccc(F)c(F)c2)nc(-c2noc(-c3ccc(OCC(F)(F)F)nc3)n2)n1` [Example 416, 2-N-(3,4-difluorophenyl)-6-{5-[6-(2,2,2-trifluoroethoxy)pyridin-3-yl]-1,2,4-oxadiazol-3-yl}-1,3,5-triazine-2,4-diamine], for which the IC50 was 1.5 µM.

For `CN(c1ccccc1)c1nc(N)nc(-c2noc(-c3ccc(C(=O)NC4CCC4)nc3)n2)n1` [Example 286, 5-(3-{4-amino-6-[methyl(phenyl)amino]-1,3,5-triazin-2-yl}-1,2,4-oxadiazol-5-yl)-N-cyclobutylpyridine-2-carboxamide], the IC50 was found to be 1.07 µM.

On to `CN(c1ccccc1)c1nc(N)nc(-c2noc(C(=O)N3CCC(COCCC(F)(F)F)CC3)n2)n1` [Example 464, 2-N-Methyl-2-N-phenyl-6-[5-({4-[(3,3,3-trifluoropropoxy)methyl]piperidin-1-yl}carbonyl)-1,2,4-oxadiazol-3-yl]-1,3,5-triazine-2,4-diamine], for which the IC50 is 0.719 µM.

Take `CN(c1ccccc1)c1nc(N)nc(-c2noc(C3CCC(NC(=O)C(F)(F)F)CC3)n2)n1` (stereo not drawn) [Example 428, N-[4-(3-{4-amino-6-[methyl(phenyl)amino]-1,3,5-triazin-2-yl}-1,2,4-oxadiazol-5-yl)cyclohexyl]-2,2,2-trifluoroacetamide]: the IC50 came out at 5.95 µM.

For `CN(c1ccccc1)c1nc(N)nc(-c2noc(-c3ccc(OC4CCCCC4)nc3)n2)n1` [Example 356, 6-{5-[6-(cyclohexyloxy)pyridin-3-yl]-1,2,4-oxadiazol-3-yl}-2-N-methyl-2-N-phenyl-1,3,5-triazine-2,4-diamine], the IC50 is 0.02 µM.

Take `CN(c1ccccc1)c1nc(N)nc(-c2noc(-c3ccc(=O)[nH]c3)n2)n1` [Example 334, 5-(3-{4-amino-6-[methyl(phenyl)amino]-1,3,5-triazin-2-yl}-1,2,4-oxadiazol-5-yl)-1,2-dihydropyridin-2-one]: the IC50 was determined as 8.45 µM.

On to `CN(c1ccccc1)c1nc(N)nc(-c2noc(C3CCC(NC(=O)OC(C)(C)C)CC3)n2)n1` (stereo not drawn) [Example 423, tert-butyl N-[4-(3-{4-amino-6-[methyl(phenyl)amino]-1,3,5-triazin-2-yl}-1,2,4-oxadiazol-5-yl)cyclohexyl]carbamate], for which the IC50 was found to be 0.684 µM.

Turning to `CN(c1ccccc1)c1nc(N)nc(-c2noc(C(=O)N3CCC(SCC(F)(F)F)CC3)n2)n1` [Example 465, 2-N-methyl-2-N-phenyl-6-[5-({4-[(2,2,2-trifluoroethyl)sulfanyl]piperidin-1-yl}carbonyl)-1,2,4-oxadiazol-3-yl]-1,3,5-triazine-2,4-diamine], the IC50 was 1.04 µM.

For `CN(c1ccccc1)c1nc(N)nc(-c2noc(-c3ccc(C(=O)NCC4CC4)nc3)n2)n1` [Example 288, 5-(3-{4-amino-6-[methyl(phenyl)amino]-1,3,5-triazin-2-yl}-1,2,4-oxadiazol-5-yl)-N-(cyclopropylmethyl)pyridine-2-carboxamide], the IC50 turned out to be 1.14 µM.

As for `CN(c1ccccc1)c1nc(N)nc(-c2noc(-c3cccnc3COCC(F)(F)F)n2)n1` [Example 301, 2-N-methyl-2-N-phenyl-6-(5-{2-[(2,2,2-trifluoroethoxy)methyl]pyridin-3-yl}-1,2,4-oxadiazol-3-yl)-1,3,5-triazine-2,4-diamine], the IC50 was determined as 0.338 µM.

As for `CC(C)CN1CCC(c2nc(-c3nc(N)nc(N(C)c4ccccc4)n3)no2)CC1` [Example 510, 2-N-methyl-6-{5-[1-(2-methylpropyl)piperidin-4-yl]-1,2,4-oxadiazol-3-yl}-2-N-phenyl-1,3,5-triazine-2,4-diamine], the IC50 came to 1.26 µM.

`CN(c1ccccc1)c1nc(N)nc(-c2noc(C(=O)N3CCC(=CCC(F)(F)F)CC3)n2)n1` [Example 322, 2-N-methyl-2-N-phenyl-6-(5-{[4-(3,3,3-trifluoropropylidene)piperidin-1-yl]carbonyl}-1,2,4-oxadiazol-3-yl)-1,3,5-triazine-2,4-diamine]: the IC50 came out at 3.27 µM.

`CN(c1ccccc1)c1nc(N)nc(-c2noc(-c3ccc(OC4CCC4)nc3)n2)n1` [Example 331, 6-[5-(6-cyclobutoxypyridin-3-yl)-1,2,4-oxadiazol-3-yl]-2-N-methyl-2-N-phenyl-1,3,5-triazine-2,4-diamine]: the IC50 was determined as 0.14 µM.

On to `CN(c1ccccc1)c1nc(N)nc(-c2noc([C@H]3CCCN3S(=O)(=O)CC(F)(F)F)n2)n1` [Example 448, 2-N-methyl-2-N-phenyl-6-{5-[(2R)-1-[(2,2,2-trifluoroethane)sulfonyl]pyrrolidin-2-yl]-1,2,4-oxadiazol-3-yl}-1,3,5-triazine-2,4-diamine], for which the IC50 was found to be 0.287 µM.

In the case of `CN(c1ccccc1)c1nc(N)nc(-c2noc([C@@H]3CCCN3)n2)n1` [Example 438, 2-N-methyl-2-N-phenyl-6-{5-[(2S)-pyrrolidin-2-yl]-1,2,4-oxadiazol-3-yl}-1,3,5-triazine-2,4-diamine hydrochloride], the IC50 was 2.09 µM.

On to `CN(c1ccccc1)c1nc(N)nc(-c2noc(N3CC[C@@H](Oc4ccccc4)C3)n2)n1` [Example 434, 2-N-methyl-6-{5-[(3R)-3-phenoxypyrrolidin-1-yl]-1,2,4-oxadiazol-3-yl}-2-N-phenyl-1,3,5-triazine-2,4-diamine], for which the IC50 came out at 0.14 µM.

Regarding `CN(c1ccccc1)c1nc(N)nc(-c2noc(N3CCC(SCC(F)(F)F)CC3)n2)n1` [Example 362, 2-N-methyl-2-N-phenyl-6-(5-{4-[(2,2,2-trifluoroethyl)sulfanyl]piperidin-1yl}-1,2,4-oxadiazol-3-yl)-1,3,5-triazine-2,4-diamine], the IC50 was 0.711 µM.

For `CN(c1nc(N)nc(-c2noc(-c3ccc(OCC(F)(F)F)nc3)n2)n1)c1ccc(F)cc1F` [Example 417, 2-N-(2,4-difluorophenyl)-2-N-methyl-6-{5-[6-(2,2,2-trifluoroethoxy)pyridin-3-yl]-1,2,4-oxadiazol-3-yl}-1,3,5-triazine-2,4-diamine], the IC50 stood at 0.028 µM.

As to `CC(OCC(F)(F)F)c1ccc(-c2nc(-c3nc(N)nc(Nc4ccccc4)n3)no2)cn1` (stereo not drawn) [Example 212, 2-N-phenyl-6-(5-{6-[1-(2,2,2-trifluoroethoxy)ethyl]pyridin-3-yl}-1,2,4-oxadiazol-3-yl)-1,3,5-triazine-2,4-diamine], the IC50 turned out to be 0.211 µM.

`CCC(C)S(=O)(=O)N1CCC(c2nc(-c3nc(N)nc(N(C)c4ccccc4)n3)no2)CC1` (stereo not drawn) [Example 508, 6-{5-[1-(butane-2-sulfonyl)piperidin-4-yl]-1,2,4-oxadiazol-3-yl}-2-N-methyl-2-N-phenyl-1,3,5-triazine-2,4-diamine]: the IC50 was found to be 2.43 µM.

As for `CN(c1ccccc1)c1nc(N)nc(-c2noc(C3CCC(NC(=O)CC(F)(F)F)CC3)n2)n1` (stereo not drawn) [Example 427, N-[4-(3-{4-amino-6-[methyl(phenyl)amino]-1,3,5-triazin-2-yl}-1,2,4-oxadiazol-5-yl)cyclohexyl]-3,3,3-trifluoropropanamide], the IC50 was determined as 4.92 µM.

As to `CN(c1ccccc1)c1nc(N)nc(-c2noc(C(=O)N3CCC(CSCC(F)(F)F)CC3)n2)n1` [Example 401, 2-N-Methyl-2-N-phenyl-6-{5-[(4-{[(2,2,2-trifluoroethyl)sulfanyl]methyl}piperidin-1-yl)carbonyl]-1,2,4-oxadiazol-3-yl}-1,3,5-triazine-2,4-diamine], the IC50 is 1.04 µM.

Still in this assay, the particulars now being: marker c: Automated patch clamp data; read-out: Nav 1.7 activity.
Consider `COCCOCc1ccc(-c2nc(-c3nc(N)nc(N(C)c4ccccc4)n3)no2)cn1` [Example 143, 6-{5-[6-(2-Methoxy-ethoxymethyl)-pyridin-3-yl]-[1,2,4]oxadiazol-3-yl}-N-methyl-N-phenyl-[1,3,5]triazine-2,4-diamine], for which the IC50 amounted to 3.57 µM.

Turning to `CC(=O)N1CCC(c2nc(-c3nc(N)nc(N(C)c4ccccc4)n3)no2)CC1` [Example 162, 1-[4-(3-{4-amino-6-[methyl(phenyl)amino]-1,3,5-triazin-2-yl}-1,2,4-oxadiazol-5-yl)piperidin-1-yl]ethan-1-one], the IC50 came to 8.98 µM.

For `CCN(c1ccccc1)c1nc(N)nc(-c2noc(-c3cc(F)ccc3OC)n2)n1` [Example 197, 2-N-ethyl-6-[5-(5-fluoro-2-methoxyphenyl)-1,2,4-oxadiazol-3-yl]-2-N-phenyl-1,3,5-triazine-2,4-diamine], the IC50 is 0.571 µM.

On to `CN(c1ccccc1)c1nc(N)nc(-c2noc(C3CCN(C(=O)C(F)(F)F)CC3)n2)n1` [Example 159, 1-[4-(3-{4-Amino-6-[methyl(phenyl)amino]-1,3,5-triazin-2-yl}-1,2,4-oxadiazol-5-yl)piperidin-1-yl]-2,2,2-trifluoroethan-1-one], for which the IC50 came out at 8.67 µM.

Turning to `CCOc1ccccc1-c1nc(-c2nc(N)nc(N(C)c3cccc(C)c3)n2)no1` [Example 183, 6-[5-(2-ethoxyphenyl)-1,2,4-oxadiazol-3-yl]-2-N-methyl-2-N-(3-methylphenyl)-1,3,5-triazine-2,4-diamine], the IC50 came out at 0.067 µM.

For the compound `CN(c1ccccc1)c1nc(N)nc(-c2noc(-c3ccc(COC4CCOC4)nc3)n2)n1` (stereo not drawn) [Example 144, N-Methyl-N-phenyl-6-{5-[6-(tetrahydro-furan-3-yloxymethyl)-pyridin-3-yl]-[1,2,4]oxadiazol-3-yl}-[1,3,5]triazine-2,4-diamine], the IC50 amounted to 1.72 µM.

`CN(c1ccccc1)c1nc(N)nc(-c2noc(C3C[C@H]4CC[C@@H](C3)N4CCC(F)(F)F)n2)n1` (mixture of isomers) [Example 145, N-Methyl-N-phenyl-6-{5-[(1R,3R,5S)-8-(3,3,3-trifluoro-propyl)-8-aza-bicyclo[3.2.1]oct-3-yl]-[1,2,4]oxadiazol-3-yl}-[1,3,5]triazine-2,4-diamine]: the IC50 was found to be 1.14 µM.
